Columns and labels:
Type in all cases: cell-based
[1] = molecular target: T1, EGFR L858R+T790M, endogenous (NCI-H1975) (Homo sapiens, UniProt P00533, L858R/T790M); test: pEGFR Y1068 ELISA assay, NCI-H1975 cells; conditions: inhibition of phosphorylation of EGFR at Tyr1068; NCI-H1975 NSCLC cells; 2 hr compound incubation
T1 construct: NCI-H1975 (EGFR L858R+T790M, endogenous); host or cells: NCI-H1975
Method: (§1) Phosphorylation of EGFR at Y1068 was measured by PathScan® Phospho-EGF Receptor (Try1068) Sandwich ELISA kit (#7240, Cell Signaling Technology®, Danvers, Mass.). The PathScan® Phospho-EGF Receptor (Tyr1068) Sandwich ELISA Kit is a solid phase sandwich enzyme-linked immunosorbent assay (ELISA) that detects endogenous levels of phospho-EGF Receptor (Tyr1068) protein. […] All cells were cultured according to ATCC recommendations. A549, NCI-H1975, PC9, and NCI-H3255 cells were grown in RPMI media (Invitrogen, Carlsbad, Calif.) supplemented with 10% FBS (Sigma, St Louis, Mo.), and with 1% Penn/Strep (Invitrogen). PC9-DRH cells were grown in RPMI with 10% FBS and 1 μM dacomitinib.
(§2) Cells were plated at 40,000/well in complete culture media (50 μL/well) on the bottom of clear tissue culture treated microtiter plates (#3595, Corning Inc, Corning, N.Y.) and allowed to adhere overnight at 37° C., 5% CO2. The following day, compound dilution plates were prepared in 96 well clear V-bottom 0.5 mL polypropylene block plates (#3956, Corning, Inc). Each compound was prepared as a DMSO stock solution (10 mM). Compounds were tested in duplicate on each plate, with an 11-point serial dilution curve (1:3 dilution). Compound treatment (50 μL) was added from the compound dilution plate to the cell plate. […] Plates were then incubated for 2 hr at 37° C., 5% CO2. For A549 (EGFR wildtype) assay, cells were plated in full-serum (10%) media for 24 hr prior to compound treatment; cells were treated in full serum media as described and then stimulated for 10 min with EGF (40 ng/mL/starvation media, Invitrogen). Immediately prior to the end of the incubation, ice-cold lysis buffer was prepared (1× Cell Lysis Buffer (#9803, Cell Signaling Technology), 1 mM sodium orthovanadate (Na3VO4, #96508, Sigma), 1 mM phenylmethanesulfonyl fluoride (PMSF, 52332, CalBiochem/EMD Chemicals), complete Mini EDTA-free Protease Inhibitor Cocktail Tablet (1 tablet/10 mL, #11836170001, Roche, Indianapolis, Ind.), and PhosSTOP Phosphatase Inhibitor Cocktail Tablet (1 tablet/10 mL, #04906837001, Roche) in pure water. At the end of 2 hr, media was flicked off and cells were washed once with ice-cold 1 mM Na3VO4 in PBS (100 μL/well, Invitrogen). The wash was then flicked off and ice-cold lysis buffer was added to the cells (50 μL/well). The plate was shaken for 20-30 min at 4° C. to completely lyse the cells. Sample diluent (50 μL/well) was added to the ELISA plate, and the lysate (50 μL) was diluted into the sample diluent in each well of the ELISA plate. Plates were sealed and incubated overnight at 4° C. with shaking. The next day, wells were washed four times with 1× Wash Buffer; plates were taped on lint-free paper after the final wash prior to adding Add Detection Antibody (green, 100 μL/well) to each well and incubating for 1 hr at 37° C. After incubation, wells were washed as described. HRP-Linked secondary antibody (red, 100 μL/well) was added to each well and incubated for 30 min at 37° C. After incubation, the wells were washed as described. TMB Substrate (100 μL/well) was added to each well and the plate incubated for 10 min at 37° C. or 30 min at rt maximum. Stop Solution (100 μL/well) was added to each well at the end of the incubation and plates were shaken gently for a few seconds. Absorbance was read at 450 nm within 30 min after addition of Stop Solution on a PerkinElmer EnVision Excite Multilabel Reader Method for Absorbance or on a Molecular Devices SpectraMax^384 Reader for absorbance. Data were analyzed using a four-parameter fit in Microsoft Excel.

EGFR del (PC9) = molecular target: T2, EGFR del (PC9) (Homo sapiens, UniProt P00533, DEL746-750); test: pEGFR Y1068 ELISA assay, PC9 cells; conditions: inhibition of phosphorylation of EGFR at Tyr1068; PC9 NSCLC cells; 2 hr compound incubation
T2 construct: detects endogenous levels of phospho-EGF Receptor (Tyr1068) protein; host or cells: PC9
T2 sequence (P00533 with tags, fused parts or gaps DEL746-750): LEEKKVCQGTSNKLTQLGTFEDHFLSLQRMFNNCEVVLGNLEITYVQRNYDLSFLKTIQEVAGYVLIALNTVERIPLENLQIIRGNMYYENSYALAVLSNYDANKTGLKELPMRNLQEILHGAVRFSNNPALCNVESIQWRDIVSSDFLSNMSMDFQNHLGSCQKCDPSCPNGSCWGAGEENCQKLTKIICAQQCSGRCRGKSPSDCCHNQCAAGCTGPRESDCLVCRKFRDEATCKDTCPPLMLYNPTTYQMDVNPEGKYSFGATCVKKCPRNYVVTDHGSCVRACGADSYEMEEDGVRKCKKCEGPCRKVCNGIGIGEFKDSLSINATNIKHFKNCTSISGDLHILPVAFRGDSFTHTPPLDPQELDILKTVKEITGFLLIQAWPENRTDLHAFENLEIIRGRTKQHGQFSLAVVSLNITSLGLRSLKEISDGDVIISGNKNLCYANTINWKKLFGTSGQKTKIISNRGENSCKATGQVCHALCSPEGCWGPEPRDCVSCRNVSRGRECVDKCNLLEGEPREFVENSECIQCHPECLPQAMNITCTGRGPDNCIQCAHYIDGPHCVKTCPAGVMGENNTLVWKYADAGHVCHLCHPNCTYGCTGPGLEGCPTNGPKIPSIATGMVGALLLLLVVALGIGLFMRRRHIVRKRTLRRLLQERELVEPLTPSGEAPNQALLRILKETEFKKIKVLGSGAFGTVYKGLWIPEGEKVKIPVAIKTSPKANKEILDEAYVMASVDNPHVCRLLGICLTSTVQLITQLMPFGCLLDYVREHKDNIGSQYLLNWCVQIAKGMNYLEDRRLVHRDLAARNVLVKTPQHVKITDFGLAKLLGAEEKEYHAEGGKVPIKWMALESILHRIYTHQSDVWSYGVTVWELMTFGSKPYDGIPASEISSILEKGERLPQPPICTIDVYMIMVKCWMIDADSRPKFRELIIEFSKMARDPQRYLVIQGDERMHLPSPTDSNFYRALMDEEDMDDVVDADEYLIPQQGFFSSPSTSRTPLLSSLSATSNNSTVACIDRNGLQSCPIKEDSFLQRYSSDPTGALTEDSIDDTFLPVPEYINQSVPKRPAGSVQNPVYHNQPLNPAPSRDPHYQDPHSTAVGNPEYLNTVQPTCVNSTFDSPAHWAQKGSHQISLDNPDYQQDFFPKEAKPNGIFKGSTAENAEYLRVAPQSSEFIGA
Method: (§3) The PathScan® Phospho-EGF Receptor (Tyr1068) Sandwich ELISA Kit is a solid phase sandwich enzyme-linked immunosorbent assay (ELISA) that detects endogenous levels of phospho-EGF Receptor (Tyr1068) protein. […] NCI-H3255 cells were licensed from NCI. […] All cells were cultured according to ATCC recommendations. A549, NCI-H1975, PC9, and NCI-H3255 cells were grown in RPMI media (Invitrogen, Carlsbad, Calif.) supplemented with 10% FBS (Sigma, St Louis, Mo.), and with 1% Penn/Strep (Invitrogen).
(§4) Each compound was prepared as a DMSO stock solution (10 mM). Compounds were tested in duplicate on each plate, with an 11-point serial dilution curve (1:3 dilution). Compound treatment (50 μL) was added from the compound dilution plate to the cell plate. […] Plates were then incubated for 2 hr at 37° C., 5% CO2. […] The wash was then flicked off and ice-cold lysis buffer was added to the cells (50 μL/well). The plate was shaken for 20-30 min at 4° C. to completely lyse the cells. Sample diluent (50 μL/well) was added to the ELISA plate, and the lysate (50 μL) was diluted into the sample diluent in each well of the ELISA plate. Plates were sealed and incubated overnight at 4° C. with shaking. The next day, wells were washed four times with 1× Wash Buffer; plates were taped on lint-free paper after the final wash prior to adding Add Detection Antibody (green, 100 μL/well) to each well and incubating for 1 hr at 37° C. After incubation, wells were washed as described. HRP-Linked secondary antibody (red, 100 μL/well) was added to each well and incubated for 30 min at 37° C. After incubation, the wells were washed as described. TMB Substrate (100 μL/well) was added to each well and the plate incubated for 10 min at 37° C. or 30 min at rt maximum. Stop Solution (100 μL/well) was added to each well at the end of the incubation and plates were shaken gently for a few seconds. […] Data were analyzed using a four-parameter fit in Microsoft Excel.

EGFR L858R (NCI-H3255) = molecular target: T3, EGFR L858R (NCI-H3255) (Homo sapiens, UniProt P00533, L858R); test: pEGFR Y1068 ELISA assay, NCI-H3255 cells; conditions: inhibition of phosphorylation of EGFR at Tyr1068; NCI-H3255 NSCLC cells; 2 hr compound incubation
T3 construct: detects endogenous levels of phospho-EGF Receptor (Tyr1068) protein; host or cells: NCI-H3255
Method: as §3, §4

EGFR del/T790M (PC9-DRH) = molecular target: T4, EGFR del/T790M (PC9-DRH) (Homo sapiens, UniProt P00533, DEL746-750/T790M); test: pEGFR Y1068 ELISA assay, PC9-DRH cells; conditions: inhibition of phosphorylation of EGFR at Tyr1068; PC9-DRH cells (dacomitinib resistant); 2 hr compound incubation
T4 construct: detects endogenous levels of phospho-EGF Receptor (Tyr1068) protein; endogenous in cells; host or cells: PC9-DRH (dacomitinib-resistant derivative of PC9, generated in house)
T4 sequence (P00533 with tags, fused parts or gaps DEL746-750/T790M): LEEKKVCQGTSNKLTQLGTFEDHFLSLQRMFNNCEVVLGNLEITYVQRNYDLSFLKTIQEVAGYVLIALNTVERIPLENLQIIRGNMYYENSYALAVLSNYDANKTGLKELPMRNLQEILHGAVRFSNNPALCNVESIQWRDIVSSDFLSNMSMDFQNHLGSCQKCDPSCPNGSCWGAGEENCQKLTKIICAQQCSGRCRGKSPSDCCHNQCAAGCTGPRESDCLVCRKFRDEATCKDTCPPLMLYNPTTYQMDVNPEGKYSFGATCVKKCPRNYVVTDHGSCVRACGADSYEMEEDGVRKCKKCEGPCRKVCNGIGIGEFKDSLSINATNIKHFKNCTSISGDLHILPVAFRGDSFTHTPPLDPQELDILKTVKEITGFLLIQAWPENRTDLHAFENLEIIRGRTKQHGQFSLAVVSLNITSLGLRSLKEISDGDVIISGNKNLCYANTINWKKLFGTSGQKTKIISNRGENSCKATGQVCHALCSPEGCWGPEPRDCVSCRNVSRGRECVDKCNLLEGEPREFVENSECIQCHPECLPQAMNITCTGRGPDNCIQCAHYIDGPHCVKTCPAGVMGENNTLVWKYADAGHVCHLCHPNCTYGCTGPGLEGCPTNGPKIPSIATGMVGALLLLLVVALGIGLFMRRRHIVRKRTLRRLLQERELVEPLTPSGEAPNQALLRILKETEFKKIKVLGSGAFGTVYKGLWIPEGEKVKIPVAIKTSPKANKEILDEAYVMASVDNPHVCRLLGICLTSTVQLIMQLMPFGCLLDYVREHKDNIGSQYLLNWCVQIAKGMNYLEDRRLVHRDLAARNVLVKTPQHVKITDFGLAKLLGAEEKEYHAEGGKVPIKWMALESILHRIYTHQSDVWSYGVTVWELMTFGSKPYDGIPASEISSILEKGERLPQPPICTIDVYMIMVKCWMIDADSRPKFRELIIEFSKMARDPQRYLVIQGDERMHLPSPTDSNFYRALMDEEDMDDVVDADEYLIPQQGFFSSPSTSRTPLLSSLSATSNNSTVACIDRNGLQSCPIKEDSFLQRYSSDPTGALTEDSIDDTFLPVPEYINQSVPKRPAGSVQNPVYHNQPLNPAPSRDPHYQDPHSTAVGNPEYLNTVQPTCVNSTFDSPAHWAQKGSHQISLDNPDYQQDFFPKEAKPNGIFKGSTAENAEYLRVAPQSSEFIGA
Method: as §3, §4

[2] = molecular target: T5, EGFR wildtype, endogenous (A549) (Homo sapiens, UniProt P00533); test: pEGFR Y1068 ELISA assay, A549 cells; conditions: inhibition of phosphorylation of EGFR at Tyr1068; A549 NSCLC cells; 2 hr compound incubation, then stimulated 10 min with EGF (40 ng/mL)
T5 construct: A549 (EGFR wildtype, endogenous); host or cells: A549 (stimulated with EGF)
T5 sequence (P00533 25-1210): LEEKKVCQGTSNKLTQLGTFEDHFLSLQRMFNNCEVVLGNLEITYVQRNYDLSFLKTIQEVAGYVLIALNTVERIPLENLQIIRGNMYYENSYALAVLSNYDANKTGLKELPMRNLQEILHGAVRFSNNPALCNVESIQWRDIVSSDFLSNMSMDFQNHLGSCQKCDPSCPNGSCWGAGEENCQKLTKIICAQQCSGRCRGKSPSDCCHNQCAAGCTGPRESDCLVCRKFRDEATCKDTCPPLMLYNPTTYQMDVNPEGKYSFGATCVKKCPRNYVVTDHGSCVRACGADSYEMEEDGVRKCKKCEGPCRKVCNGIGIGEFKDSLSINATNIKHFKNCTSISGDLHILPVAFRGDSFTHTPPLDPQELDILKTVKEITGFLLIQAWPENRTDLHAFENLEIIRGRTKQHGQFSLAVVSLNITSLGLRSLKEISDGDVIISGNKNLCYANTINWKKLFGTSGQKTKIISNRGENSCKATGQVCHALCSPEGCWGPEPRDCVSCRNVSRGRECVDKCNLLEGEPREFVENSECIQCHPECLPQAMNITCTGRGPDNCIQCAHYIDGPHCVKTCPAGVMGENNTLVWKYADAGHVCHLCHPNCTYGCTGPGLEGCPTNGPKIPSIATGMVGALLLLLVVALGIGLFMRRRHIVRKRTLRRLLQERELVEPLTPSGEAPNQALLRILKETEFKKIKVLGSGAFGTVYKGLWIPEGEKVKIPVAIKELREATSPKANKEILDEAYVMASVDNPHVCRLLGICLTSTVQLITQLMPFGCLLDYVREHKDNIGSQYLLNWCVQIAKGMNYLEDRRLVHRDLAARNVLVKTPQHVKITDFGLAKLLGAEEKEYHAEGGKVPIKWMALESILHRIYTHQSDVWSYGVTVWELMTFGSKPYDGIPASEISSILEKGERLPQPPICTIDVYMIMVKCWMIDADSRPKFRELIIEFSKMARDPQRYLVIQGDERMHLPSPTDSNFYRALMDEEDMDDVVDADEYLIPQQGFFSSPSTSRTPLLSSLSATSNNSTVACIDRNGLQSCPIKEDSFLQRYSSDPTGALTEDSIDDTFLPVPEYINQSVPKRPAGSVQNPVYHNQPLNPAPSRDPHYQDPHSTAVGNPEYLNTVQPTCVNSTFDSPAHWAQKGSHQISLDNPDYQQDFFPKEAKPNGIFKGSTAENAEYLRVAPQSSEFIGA
Method: as §1, §2

T1 sequence (P00533 25-1210 T790M/L858R): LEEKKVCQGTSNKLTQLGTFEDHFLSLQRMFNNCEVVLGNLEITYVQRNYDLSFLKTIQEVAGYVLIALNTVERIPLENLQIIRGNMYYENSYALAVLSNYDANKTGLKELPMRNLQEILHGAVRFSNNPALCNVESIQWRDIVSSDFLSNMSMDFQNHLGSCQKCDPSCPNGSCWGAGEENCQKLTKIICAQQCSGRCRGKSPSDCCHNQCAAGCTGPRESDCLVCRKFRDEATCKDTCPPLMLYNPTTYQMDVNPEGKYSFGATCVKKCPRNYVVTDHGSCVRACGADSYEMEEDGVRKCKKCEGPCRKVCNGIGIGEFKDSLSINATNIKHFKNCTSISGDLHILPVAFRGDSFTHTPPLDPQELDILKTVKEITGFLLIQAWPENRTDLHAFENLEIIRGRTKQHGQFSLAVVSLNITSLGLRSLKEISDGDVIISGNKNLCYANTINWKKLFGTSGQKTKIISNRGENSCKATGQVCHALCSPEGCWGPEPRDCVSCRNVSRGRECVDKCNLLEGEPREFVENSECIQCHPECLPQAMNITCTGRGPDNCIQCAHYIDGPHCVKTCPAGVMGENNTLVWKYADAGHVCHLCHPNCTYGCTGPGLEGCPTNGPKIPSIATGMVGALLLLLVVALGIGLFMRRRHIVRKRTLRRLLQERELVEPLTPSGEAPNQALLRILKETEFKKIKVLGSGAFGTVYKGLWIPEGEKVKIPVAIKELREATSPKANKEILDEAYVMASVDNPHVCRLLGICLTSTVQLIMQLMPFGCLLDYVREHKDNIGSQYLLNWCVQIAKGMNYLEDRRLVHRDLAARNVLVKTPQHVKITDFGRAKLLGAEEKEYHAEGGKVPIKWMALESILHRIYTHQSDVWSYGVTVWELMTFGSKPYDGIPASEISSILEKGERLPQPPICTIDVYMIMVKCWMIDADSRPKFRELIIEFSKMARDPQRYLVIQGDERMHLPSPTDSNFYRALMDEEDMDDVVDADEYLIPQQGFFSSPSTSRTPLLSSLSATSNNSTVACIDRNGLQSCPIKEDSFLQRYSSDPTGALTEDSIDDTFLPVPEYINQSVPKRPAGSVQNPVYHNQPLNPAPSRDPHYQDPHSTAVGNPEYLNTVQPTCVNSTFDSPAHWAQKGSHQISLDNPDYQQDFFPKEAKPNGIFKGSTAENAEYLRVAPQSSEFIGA

IC50 [1]: 6 nM
IC50 (EGFR del (PC9)): 6 nM
IC50 (EGFR L858R (NCI-H3255)): 2 nM
IC50 (EGFR del/T790M (PC9-DRH)): 1 nM
IC50 [2]: 194 nM
SMILES: C=CC(=O)N[C@@H]1CN(c2nc(Nc3cn(CC)nc3OC)c3ncn(C)c3n2)C[C@H]1F [Example 88, N-((3R,4R)-1-(6-((1-ethyl-3-methoxy-1H-pyrazol-4-yl)amino)-9-methyl-9H-purin-2-yl)-4-fluoropyrrolidin-3-yl)acrylamide]
